From US5591756A, “LTB4 synthesis inhibitors” (G. D. Searle & Co., priority 1995, dated 1997)

Tests used:
[1] = tested on: LTB4 Biosynthesis, Human PMNs; assay: LTB4 biosynthesis inhibition in human PMNs; assay type: cell-based; details: read-out: LTB4 Biosynthesis inhibition cells IC50, Human PMNs
[2] = target: T1, Human synovial fluid phospholipase A2 (HSF-PLA2) (Homo sapiens, UniProt P14555); assay: Human synovial fluid phospholipase A2 (HSF-PLA2) assay; assay type: biochemical; details: [14C]-oleate-labeled E. coli substrate, pH 7.0, 5 min pre-incubation, 37° C., 30 minutes
T1 construct: Human synovial fluid phospholipase A2 was purified approximately 5000 fold; from tissue; host or cells: human synovial fluid (enzyme purified about 5000 fold)
T1 sequence (P14555 21-144): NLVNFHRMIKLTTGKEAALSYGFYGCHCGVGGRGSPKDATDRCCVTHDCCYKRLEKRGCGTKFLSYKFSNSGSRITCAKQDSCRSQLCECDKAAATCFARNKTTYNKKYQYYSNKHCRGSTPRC
Procedure: Human synovial fluid phospholipase A2 was purified approximately 5000 fold following the procedures of Franson et al., Lung 160, 275-284 (1982) and Fawzy et al., Bio Phys. J. 49, 533a (1986). Following purification the enzyme activity was measured by established methodology using [^14 C]-oleate-labeled, autoclaved E. coli as the substrate as also shown in the above noted references. The assay was performed in a final volume of 100 μl containing 50 mM HEPES (pH 7.0), 150 mM NaCl, 5 mM CaCl2, 7 nM [^14 C]-oleate-labeled E. coli phospholipid and with or without the compound from one of the examples herein undergoing an assay. The compound or control vehicle was pre-incubated with the PLA2 for 5 minutes followed by addition of the E. coli substrate to initiate the reaction. The reaction was maintained at 37° C. for 30 minutes and then terminated by the addition of 2 ml tetrahydrofuran (THF). The reaction product, [^14 C]-oleic acid, was extracted using a 1 ml Bond Elut-NH2 Solid phase extraction column. The IC50 value for the compound (mean±S.E.) is given in the following Table and represents the concentration of the compound required to inhibit 50% of the PLA2 activity.

[3] = tested on: LTB4 Biosynthesis, HL-60 cells; assay: Assay for LTB4 (and PGE2) production by HL-60 cells; assay type: cell-based; details: Homo sapiens; differentiated HL-60 cells, 10 min pre-incubation 37° C., stimulated with 5×10^-6 M calcium ionophore A23187, radioimmunoassay; read-out: LTB4 Biosynthesis inhibition cells IC50, HL60 Cells
Procedure: HL-60 cells were induced to differentiate into granulocytes by a 4 day incubation with 0.8% (v/v) N,N-dimethyl formamide as disclosed in Fontana et al., Proc. Natl. Acad. Sci. 78. (6): 3863-3866 (1981); Agins et al., Biochem. Biophys. Res. Comm. 126, 143-149 (1985); and Bonser et al., Biochemistry 20: 5297-5301 (1981). Prior to performing the assay, differentiated HL-60 cells were washed once with Hanks' balanced salt solution containing 0.35 mg/ml sodium bicarbonate and 10 mM HEPES pH 7.35 (HBSS). HL-60 cells (3×10^6 cells/ml) were pre-incubated with the compound tested or a control vehicle at 37° C. for 10 minutes, followed by 5 minute incubation with 5×10^-6 M calcium ionophore A23187 in a final volume of 1.0 ml. After incubation, the cells were pelleted by centrifugation and the LTB4 and PGE2 in the supernatent were quantified by radioimmunoassay. IC50 values (means±S.E.) for compounds herein that were tested are shown in the following Table and represent the concentrations of the compound required to inhibit 50% of LTB4 or PGE2 production by HL-60 cells stimulated with the calcium ionophore A23187.

| Structure (SMILES) | IC50 [1] [nM] | IC50 [2] [nM] | IC50 [3] [nM] |
| --- | --- | --- | --- |
| CCCCCCCCCCCCCC(=O)CC(=O)c1cccc(-c2nnn[nH]2)c1 [Example 19, 1-[3-(1H-tetrazol-5-yl)phenyl]-1,3-hexadecadione] | 3000 | 48000 |  |
| O=C(CCCCCCCCCOc1ccccc1)CC(=O)c1ccc(C(=O)O)cc1 [Example 22, 4-(1,3-dioxo-12-phenoxydodecyl)benzoic acid] | 2700 | 16000 |  |
| CCCCCCCCCCCCCC(=O)CC(=O)c1ccc(C(=O)O)o1 [Example 9, 5-(1,3-dioxohexadecanyl)-2-furancarboxylic acid] | 3500 | 2700 | 4700 |
| CCCCCCCCCCCCCC(=O)CC(=O)c1ccc(C(=O)O)s1 [Example 15, 5-(1,3-dioxohexadecyl)-2-thiophenecarboxylic acid] | 2700 | 1900 |  |

Next, values leading:

| IC50 [1] [nM] | IC50 [2] [nM] | IC50 [3] [nM] | Structure (SMILES) |
| --- | --- | --- | --- |
|  | 90000 |  | CCCCCCCCCCCCCC(=O)CC(=O)c1ccc(C(=O)O)cc1 [Example 4, 4-(1,3-dioxohexadecanyl)benzoic acid] |
| 1200 | 1700 | 1500 | CCCCCCCCCCCCCC(=O)CC(=O)c1cccc(C(=O)O)c1 [Example 5, 3-(1,3-dioxohexadecanyl)benzoic acid] |
